Where a SMILES comes first, the peptide text is derived from it. Bridges are numbered along the chain shown (N, C = ends). [ ]: non-standard residue; d: D form. Nle = CCCC[C@H](N)C(=O)O
What was measured:
hMC5R [1] = biological target: T1, hMC5R (Homo sapiens, UniProt P33032); assay: Competition binding vs 125I-[Nle4,DPhe7]-α-MSH on whole HEK293 cells; conditions: text description
hMC4R [2] = biological target: T2, hMC4R (Homo sapiens, UniProt P32245); assay: Adenylate cyclase assay; assay type: cell-based; conditions: cAMP, text description
T2 sequence (P32245 whole entry): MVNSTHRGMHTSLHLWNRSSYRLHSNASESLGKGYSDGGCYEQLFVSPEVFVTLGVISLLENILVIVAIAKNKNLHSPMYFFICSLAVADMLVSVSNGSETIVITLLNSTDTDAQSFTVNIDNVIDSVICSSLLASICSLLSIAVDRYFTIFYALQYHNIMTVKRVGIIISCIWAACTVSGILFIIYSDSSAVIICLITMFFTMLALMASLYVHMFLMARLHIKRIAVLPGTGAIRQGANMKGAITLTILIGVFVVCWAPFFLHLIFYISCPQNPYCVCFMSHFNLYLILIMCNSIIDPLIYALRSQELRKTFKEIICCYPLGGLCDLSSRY

hMC1R [3] = biological target: T3, hMC1R (Homo sapiens, UniProt Q01726); assay: Adenylate cyclase assay; assay type: cell-based; conditions: cAMP, text description
T3 sequence (Q01726 whole entry): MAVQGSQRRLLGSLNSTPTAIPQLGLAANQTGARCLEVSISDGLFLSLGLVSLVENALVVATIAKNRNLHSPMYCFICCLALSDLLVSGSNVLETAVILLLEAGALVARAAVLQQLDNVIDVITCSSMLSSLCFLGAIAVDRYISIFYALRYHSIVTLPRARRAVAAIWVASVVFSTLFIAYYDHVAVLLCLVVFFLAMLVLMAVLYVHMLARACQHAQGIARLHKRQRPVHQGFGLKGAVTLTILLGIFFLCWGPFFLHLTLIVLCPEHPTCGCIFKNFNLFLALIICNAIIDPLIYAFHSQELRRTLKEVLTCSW

hMC5R [4] = biological target: T1, hMC5R; assay: Adenylate cyclase assay; assay type: cell-based; conditions: cAMP, text description
hMC4R [5] = biological target: T2, hMC4R; assay: Competition binding vs 125I-[Nle4,DPhe7]-α-MSH on whole HEK293 cells; conditions: text description
hMC3R [6] = biological target: T4, hMC3R (Homo sapiens, UniProt P41968); assay: as above; conditions: text description
T4 sequence (P41968 whole entry): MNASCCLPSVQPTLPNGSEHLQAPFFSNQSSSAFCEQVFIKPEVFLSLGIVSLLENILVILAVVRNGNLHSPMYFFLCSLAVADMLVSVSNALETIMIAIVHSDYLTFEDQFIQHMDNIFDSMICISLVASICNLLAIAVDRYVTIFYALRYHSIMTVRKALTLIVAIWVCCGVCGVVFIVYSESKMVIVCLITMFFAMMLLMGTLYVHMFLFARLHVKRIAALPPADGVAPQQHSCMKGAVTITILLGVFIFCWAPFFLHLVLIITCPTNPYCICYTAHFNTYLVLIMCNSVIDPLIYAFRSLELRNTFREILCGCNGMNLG

hMC3R [7] = biological target: T4, hMC3R; assay: Adenylate cyclase assay; assay type: cell-based; conditions: cAMP, text description
hMC1R [8] = biological target: T3, hMC1R; assay: Competition binding vs 125I-[Nle4,DPhe7]-α-MSH on whole HEK293 cells; conditions: text description

T1 sequence (P33032 whole entry): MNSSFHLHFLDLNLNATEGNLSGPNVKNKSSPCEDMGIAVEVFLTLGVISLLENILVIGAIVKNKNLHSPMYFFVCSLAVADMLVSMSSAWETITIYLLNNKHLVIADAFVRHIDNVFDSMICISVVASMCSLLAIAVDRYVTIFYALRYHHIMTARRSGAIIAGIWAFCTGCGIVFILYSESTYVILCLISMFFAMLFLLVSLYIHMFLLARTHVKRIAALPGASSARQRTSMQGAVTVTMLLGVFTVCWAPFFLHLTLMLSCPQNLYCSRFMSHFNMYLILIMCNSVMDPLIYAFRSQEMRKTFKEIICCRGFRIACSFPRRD

| SMILES | binding at hMC5R (in words) (hMC5R [1]) | functional activity at hMC4R (in words) (hMC4R [2]) | functional activity at hMC1R (in words) (hMC1R [3]) | functional activity at hMC5R (in words) (hMC5R [4]) | binding at hMC4R (in words) (hMC4R [5]) | binding at hMC3R (in words) (hMC3R [6]) | functional activity at hMC3R (in words) (hMC3R [7]) | binding at hMC1R (in words) (hMC1R [8]) |
| --- | --- | --- | --- | --- | --- | --- | --- | --- |
| CCCC[C@H](NC(C)=O)C(=O)N[C@H]1CC(=O)NCCCC[C@@H](C(N)=O)NC(=O)[C@H](Cc2c[nH]c3ccccc23)NC(=O)[C@H](CCCNC(=N)N)NC(=O)[C@@H](Cc2ccccc2)NC(=O)[C@@H]2CCCN2C(=O)[C@@H]2CCCN2C1=O [compound 1, Ac-Nle-c[D-P-P-DPhe-R-W-K]-NH2] (Ac-[Nle]DPP[dF]RWK-NH2; lactam 2-8) | no appreciable binding | undetectable activity | low potency | undetectable activity | low binding affinity | low binding affinity | undetectable activity | no appreciable binding |
| CCCC[C@H](NC(C)=O)C(=O)N[C@H]1CC(=O)NCCCC[C@@H](C(N)=O)NC(=O)[C@H](Cc2c[nH]c3ccccc23)NC(=O)[C@H](CCCNC(=N)N)NC(=O)[C@@H](Cc2ccccc2)NC(=O)[C@@H]2CCCN2C(=O)[C@H](Cc2c[nH]c3ccccc23)NC1=O [compound 3, Ac-Nle-c[D-W-P-DPhe-R-W-K]-NH2] | no affinity | weak and moderate activation | weak and moderate activation | weak and moderate activation | no affinity | weak binding | no stimulation of cAMP accumulation | no affinity |
